Results: patent publication US20140235533A1, “DIHYDROFURAN DERIVATIVES AS INSECTICIDAL COMPOUNDS” (SYNGENTA PARTICIPATIONS AG, priority 2011, published 2014)

Experiments:
Format in all cases: in vivo
Plutella xylostella = Plutella xylostella (diamond back moth) artificial diet MTP test; conditions: 144 h, 200 ppm (concentration in well 18 ppm), L2 larvae, larval mortality and growth regulation after 6 days
Method: (§1) Plutella xylostella (Diamond Back Moth): 24-well microtiter plate (MTP) with artificial diet was treated with test solutions at an application rate of 200 ppm (concentration in well 18 ppm) by pipetting. After drying, the MTPs were infested with L2 larvae (7-12 per well). After an incubation period of 6 days, samples were checked for larval mortality and growth regulation.

Heliothis virescens = Heliothis virescens (tobacco budworm) egg test on artificial diet; conditions: 96 h, 200 ppm (concentration in well 18 ppm), eggs 0-24 h old on artificial diet, egg mortality, larval mortality, growth regulation after 4 days
Method: Heliothis virescens (Tobacco Budworm):
Eggs (0-24 h old) were placed in 24-well microtiter plate on artificial diet and treated with test solutions at an application rate of 200 ppm (concentration in well 18 ppm) by pipetting. After an incubation period of 4 days, samples were checked for egg mortality, larval mortality, and growth regulation. The following compound gave at least 80% control of Heliothis virescens: A1, A2, A03, A05, A06, A07, A08, A09, A10, A11, A12, A13, A14, A15, A16, A17, A18, A19, A20, A21, A22, A25, A26, A27, A31, A32, A34, A37, A39, A40, A42, A44, A45, A46, A47, A48, A49, A50, A51, A52, A53, B1**.

Tetranychus urticae = Tetranychus urticae (two-spotted spider mite) bean leaf disc spray test; conditions: foliar, 192 h, 200 ppm spray on bean leaf discs, mite populations of mixed ages, egg, larval and adult mortality 8 days later
Description: Tetranychus urticae (Two-Spotted Spider Mite): Bean leaf discs on agar in 24-well microtiter plates were sprayed with test solutions at an application rate of 200 ppm. After drying, the leaf discs are infested with mite populations of mixed ages. 8 days later, discs are checked for egg mortality, larval mortality, and adult mortality.

Spodoptera littoralis = Spodoptera littoralis (Egyptian cotton leafworm) cotton leaf disc spray test; conditions: foliar, 72 h, 200 ppm spray on cotton leaf discs, 5 L1 larvae, mortality, feeding behavior, growth regulation 3 days after treatment
Description: Spodoptera littoralis (Egyptian Cotton Leafworm) Cotton leaf discs were placed on agar in a 24-well microtiter plate and sprayed with test solutions at an application rate of 200 ppm. After drying, the leaf discs were infested with 5 L1 larvae. The samples were checked for mortality, feeding behavior, and growth regulation 3 days after treatment (DAT).

Diabrotica balteata = Diabrotica balteata (corn root worm) artificial diet MTP test; conditions: 120 h, 200 ppm (concentration in well 18 ppm), L2 larvae, larval mortality and growth regulation after 5 days
Method: as §1, with “Diabrotica balteata (Corn Root Worm): A” for “Plutella xylostella (Diamond Back Moth):”, “(6-10” for “(7-12”, “5” for “6”

Measured: pest or weed control at 200 ppm

CSCC(=O)NCc1ccc(C2=COC(c3cc(Cl)cc(Cl)c3)(C(F)(F)F)C2)cc1Cl (stereo not shown) [Compound A1, N-[[2-chloro-4-[2-(3,5-dichlorophenyl)-2-(trifluoromethyl)-3H-furan-4-yl]phenyl]methyl]-2-methylsulfanyl-acetamide]
≥ 80%: all assays above

CCSC(SCC)C(=O)NCc1ccc(C2=COC(c3cc(Cl)cc(Cl)c3)(C(F)(F)F)C2)cc1Cl (stereo not shown) [Compound A53, N-[[2-chloro-4-[2-(3,5-dichlorophenyl)-2-(trifluoromethyl)-3H-furan-4-yl]phenyl]methyl]-2,2-bis(ethylsulfanyl)acetamide]
not listed: Tetranychus urticae
≥ 80%: all other assays above

CC1CCCCC1C(=O)NCc1ccc(C2=COC(c3cc(Cl)cc(Cl)c3)(C(F)(F)F)C2)cc1Cl (stereo not shown) [Compound A11, N-[[2-chloro-4-[2-(3,5-dichlorophenyl)-2-(trifluoromethyl)-3H-furan-4-yl]phenyl]methyl]-2-methyl-cyclohexanecarboxamide]
≥ 80%: Plutella xylostella | Heliothis virescens | Tetranychus urticae

COc1ccc(C(=O)NCc2ccc(C3=COC(c4cc(Cl)cc(Cl)c4)(C(F)(F)F)C3)cc2Cl)cc1 (stereo not shown) [Compound A26, N-[[2-chloro-4-[2-(3,5-dichlorophenyl)-2-(trifluoromethyl)-3H-furan-4-yl]phenyl]methyl]-4-methoxy-benzamide]
not listed: Tetranychus urticae
≥ 80%: all other assays above

Cn1nc(C(=O)NCc2ccc(C3=COC(c4cc(Cl)cc(Cl)c4)(C(F)(F)F)C3)cc2Cl)sc1=O (stereo not shown) [Compound A50, N-[[2-chloro-4-[2-(3,5-dichlorophenyl)-2-(trifluoromethyl)-3H-furan-4-yl]phenyl]methyl]-4-methyl-5-oxo-1,3,4-thiadiazole-2-carboxamide]
not listed: Tetranychus urticae
≥ 80%: all other assays above

C/N=C1/SC(CC(=O)NCc2ccc(C3=COC(c4cc(Cl)cc(Cl)c4)(C(F)(F)F)C3)cc2Cl)C(=O)N1C (stereo not shown) [Compound A15, N-[[2-chloro-4-[2-(3,5-dichlorophenyl)-2-(trifluoromethyl)-3H-furan-4-yl]phenyl]methyl]-2-[(2E)-3-methyl-2-methylimino-4-oxo-thiazolidin-5-yl]acetamide]
≥ 80%: all assays above

CCC(=O)NCc1ccc(C2=COC(c3cc(Cl)cc(Cl)c3)(C(F)(F)F)C2)cc1Cl (stereo not shown) [Compound A05, N-[[2-chloro-4-[2-(3,5-dichlorophenyl)-2-(trifluoromethyl)-3H-furan-4-yl]phenyl]methyl]propanamide]
≥ 80%: all assays above

O=C(Cc1cccs1)NCc1ccc(C2=COC(c3cc(Cl)cc(Cl)c3)(C(F)(F)F)C2)cc1Cl (stereo not shown) [Compound A18, N-[[2-chloro-4-[2-(3,5-dichlorophenyl)-2-(trifluoromethyl)-3H-furan-4-yl]phenyl]methyl]-2-(2-thienyl)acetamide]
not listed: Diabrotica balteata
≥ 80%: all other assays above

O=C(CCN1C(=O)c2ccccc2C1=O)NCc1ccc(C2=COC(c3cc(Cl)cc(Cl)c3)(C(F)(F)F)C2)cc1Cl (stereo not shown) [Compound A22, N-[[2-chloro-4-[2-(3,5-dichlorophenyl)-2-(trifluoromethyl)-3H-furan-4-yl]phenyl]methyl]-3-(1,3-dioxoisoindolin-2-yl)propanamide]
not listed: Tetranychus urticae
≥ 80%: all other assays above

C[C@H](NC(=O)C1CC1)c1ccc(C2=COC(c3cc(Cl)c(Cl)c(Cl)c3)(C(F)(F)F)C2)cc1 (stereo partly drawn) [B1*, N-[(1S)-1-[4-[2-(3,4,5-trichlorophenyl)-2-(trifluoromethyl)-3H-furan-4-yl]phenyl]ethyl]cyclopropanecarboxamide]
≥ 80%: all assays above

O=C(COc1ccccc1)NCc1ccc(C2=COC(c3cc(Cl)cc(Cl)c3)(C(F)(F)F)C2)cc1Cl (stereo not shown) [Compound A19, N-[[2-chloro-4-[2-(3,5-dichlorophenyl)-2-(trifluoromethyl)-3H-furan-4-yl]phenyl]methyl]-2-phenoxy-acetamide]
not listed: Spodoptera littoralis
≥ 80%: all other assays above

O=C(NCc1ccc(C2=COC(c3cc(Cl)cc(Cl)c3)(C(F)(F)F)C2)cc1Cl)c1cccs1 (stereo not shown) [Compound A44, N-[[2-chloro-4-[2-(3,5-dichlorophenyl)-2-(trifluoromethyl)-3H-furan-4-yl]phenyl]methyl]thiophene-2-carboxamide]
not listed: Tetranychus urticae
≥ 80%: all other assays above

Cc1cccnc1C(=O)NCc1ccc(C2=COC(c3cc(Cl)cc(Cl)c3)(C(F)(F)F)C2)cc1Cl (stereo not shown) [Compound A39, N-[[2-chloro-4-[2-(3,5-dichlorophenyl)-2-(trifluoromethyl)-3H-furan-4-yl]phenyl]methyl]-3-methyl-pyridine-2-carboxamide]
not listed: Tetranychus urticae
≥ 80%: all other assays above

O=C(Cc1ccccc1)NCc1ccc(C2=COC(c3cc(Cl)cc(Cl)c3)(C(F)(F)F)C2)cc1Cl (stereo not shown) [Compound A14, N-[[2-chloro-4-[2-(3,5-dichlorophenyl)-2-(trifluoromethyl)-3H-furan-4-yl]phenyl]methyl]-2-phenyl-acetamide]
not listed: Diabrotica balteata
≥ 80%: all other assays above

O=C(NCc1ccc(C2=COC(c3cc(Cl)cc(Cl)c3)(C(F)(F)F)C2)cc1Cl)c1cccc(F)c1F (stereo not shown) [Compound A20, N-[[2-chloro-4-[2-(3,5-dichlorophenyl)-2-(trifluoromethyl)-3H-furan-4-yl]phenyl]methyl]-2,3-difluoro-benzamide]
not listed: Tetranychus urticae
≥ 80%: all other assays above

O=C(COCc1ccccc1)NCc1ccc(C2=COC(c3cc(Cl)cc(Cl)c3)(C(F)(F)F)C2)cc1Cl (stereo not shown) [Compound A08, 2-benzyloxy-N-[[2-chloro-4-[2-(3,5-dichlorophenyl)-2-(trifluoromethyl)-3H-furan-4-yl]phenyl]methyl]acetamide]
≥ 80%: Heliothis virescens | Tetranychus urticae | Spodoptera littoralis

CCC(Cl)C(=O)NCc1ccc(C2=COC(c3cc(Cl)cc(Cl)c3)(C(F)(F)F)C2)cc1Cl (stereo not shown) [Compound A47, 2-chloro-N-[[2-chloro-4-[2-(3,5-dichlorophenyl)-2-(trifluoromethyl)-3H-furan-4-yl]phenyl]methyl]butanamide]
not listed: Tetranychus urticae
≥ 80%: all other assays above

Cc1cc2ncc(C(=O)NCc3ccc(C4=COC(c5cc(Cl)cc(Cl)c5)(C(F)(F)F)C4)cc3Cl)c(C)n2n1 (stereo not shown) [Compound A40, N-[[2-chloro-4-[2-(3,5-dichlorophenyl)-2-(trifluoromethyl)-3H-furan-4-yl]phenyl]methyl]-2,7-dimethyl-pyrazolo[1,5-a]pyrimidine-6-carboxamide]
≥ 80%: Plutella xylostella | Heliothis virescens | Tetranychus urticae
